Laboratory results reported in patent US20100056516A1 (priority 2006, published 2010).

Legend:
[1] = biological target: HIV integrase (Human immunodeficiency virus type 1 group M subtype B, UniProt P04585); assay: integrase strand transfer assay (STA); assay type: biochemical; details: integrase strand transfer; read-out: IC50 in the STA assay
[2] = tested on: HXB2 virus; assay: microbe, parasite or virus in culture; assay type: cell-based, HIV; details: Human immunodeficiency virus 1, HXB2, HeLaP4-2, read-out: antiviral IC50 (SCIA-B)
How it was run: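 Single-cycle infectivity assay in HeLa P4-2 cells measuring inhibition of acute HIV infection, using HXB2 virus.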

| Compound | IC50 [1] [µM] | IC50 [2] [µM] |
| --- | --- | --- |
| CC(=O)N1CCN(Cc2cccc(-c3cc(=O)n(O)c4ncccc34)c2)CC1 [Example 213, 4-{3-[(4-acetyl-1-piperazinyl)methyl]phenyl}-1-hydroxy-1,8-naphthyridin-2(1H-one)] | < 50 | < 100 |
| CN(C(=O)c1c(O)c2cccnc2n(O)c1=O)C1CCNC1 (centres unmarked) [Example 215, 1,4-Dihydroxy-N-methyl-2-oxo-N-pyrrolidin-3-yl-1,2-dihydro-1,8-naphthyridine-3-carboxamide] | < 50 | < 100 |
| CN1C(=O)c2c(c3cccnc3n(O)c2=O)NC1c1ccccc1 (centres unmarked) [Example 216, 6-Hydroxy-3-methyl-2-phenyl-2,3-dihydropyrimido[5,4-c]-1,8-naphthyridine-4,5(1H, 6H)-dione] | < 50 | < 100 |
| CN1C(=O)c2c(c3cccnc3n(O)c2=O)NC1c1ccccc1-c1ccccc1 (centres unmarked) [Example 217, 2-Biphenyl-2-yl-6-hydroxy-3-methyl-2,3-dihydropyrimido[5,4-c]-1,8-naphthyridine-4,5(1H, 6H)dione] | < 50 | < 100 |
| CN1C(=O)c2c(c3cccnc3n(O)c2=O)NC1c1cccc(Oc2ccccc2)c1 (centres unmarked) [Example 218, 6-Hydroxy-3-methyl-2-(3-phenoxyphenyl)-2,3-dihydropyrimido[5,4-c]-1,8-naphthyridine-4,5(1H, 6H)dione] | < 50 | < 100 |
| CN1C(=O)c2c(c3cccnc3n(O)c2=O)NC1c1cccc(CN2CCOCC2)c1 (centres unmarked) [Example 219, 6-Hydroxy-3-methyl-2-[3-(morpholin-4-ylmethyl)phenyl]-2,3-dihydropyrimido[5,4-c]-1,8-naphthyridine-4,5(1H, 6H)dione] | < 50 | < 100 |
| CN1C(=O)c2c(c3cccnc3n(O)c2=O)NC1c1cccc(CN)c1 (centres unmarked) [Example 220, 2-[3-(Aminomethyl)phenyl]-6-hydroxy-3-methyl-2,3-dihydropyrimido[5,4-c]-1,8-naphthyridine-4,5(1H, 6H)dione] | < 50 | < 100 |
| CNC(=O)c1c(N)c2cccnc2n(O)c1=O [Example 221, 4-Amino-1-hydroxy-N-methyl-2-oxo-1,2-dihydro-1,8-naphthyridine-3-carboxamide] | < 50 | < 100 |
| CCOC(=O)Cc1c(O)c2cccnc2n(O)c1=O [Example 223, Ethyl (1,4-dihydroxy-2-oxo-1,2-dihydro-1,8-naphthyridin-3-yl)acetate] | < 50 | < 100 |
| NCc1cccc(CNC(=O)Cc2c(O)c3cccnc3n(O)c2=O)c1 [Example 224] | < 50 | < 100 |
| O=c1cc(O)c2c(-c3cccc(O)c3)ccnc2n1O [Example 226, 1,4-dihydroxy-5-(3-hydroxyphenyl)-1,8-naphthyridin-2(1H)-one] | < 50 | < 100 |
| NCc1cccc(-c2cccc(-c3ccnc4c3c(O)cc(=O)n4O)c2)c1 [Example 227, 5-[3′-(aminomethyl)biphenyl-3-yl]-1,4-dihydroxy-1,8-naphthyridin-2-(1H)-one] | < 50 | < 100 |
| NCc1ccc(-c2cccc(-c3ccnc4c3c(O)cc(=O)n4O)c2)cc1 [Example 228, 5-[4′-(aminomethyl)biphenyl-3-yl]-1,4-dihydroxy-1,8-naphthyridin-2(1H)-one] | < 50 | < 100 |
| Cc1cc(C)n(-c2cccc(-c3ccnc4c3c(O)cc(=O)n4O)c2)n1 [Example 229, 5-[3-(3,5-dimethyl-1H-pyrazol-1-yl)phenyl]-1,4-dihydroxy-1,8-naphthyridin-2(1H)-one] | < 50 | < 100 |
| NCc1ccc(-c2cccc(Cc3cc(=O)n(O)c4ncccc34)c2)cc1 [Example 232, 4-{[4′-(aminomethyl)biphenyl-3-yl]methyl}-1-hydroxy-1,8-naphthyridin-2(1H)-one] | < 50 | < 100 |
| Nc1cccc(-c2cccc(Cc3cc(=O)n(O)c4ncccc34)c2)c1 [Example 233, 4-[(3′-aminobiphenyl-3-yl)methyl]-1-hydroxy-1,8-naphthyridin-2(1H)-one] | < 50 | < 100 |
